The record followed here is ChEMBL document CHEMBL1158405, “Identification of nobiletin, a polymethoxyflavonoid, as an enhancer of adiponectin secretion” (2009).

The source made the active and inactive calls. The rule behind the calls is not given here.

Assay [1] deals with ST-13. Nature of the assay: Induction of adiponectin secretion in mouse ST-13 cells after 11 days by ELISA. In kind it is functional, cell-based.
In assay [2] the test system is ST-13. In words: Induction of preadipocyte differentiation in mouse ST-13 cells assessed as lipid accumulation at 10 uM within 11 days by oil red-staining relative to control. It is filed as functional, cell-based.
Assay [3] concerns ST-13. In words: Induction of preadipocyte differentiation in mouse ST-13 cells assessed as triglyceride accumulation after 11 days by Fletcher's method. It is filed as functional, cell-based.
Assay [4] has as its system ST-13. Nature of the assay: Induction of adipocyte differentiation in mouse ST-13 cells assessed as stimulation of adipsin mRNA expression at 0.1 to 30 uM within 11 days by semi-quantitative RT-PCR. In kind it is functional, cell-based.
Assay [5] relates to ST-13. In words: Induction of adipocyte differentiation in mouse ST-13 cells assessed as stimulation of adipocyte P2 mRNA expression at 0.1 to 30 uM within 11 days by semi-quantitative RT-PCR. It is filed as functional, cell-based.
Assay [6] is described as follows: Induction of adiponectin secretion in mouse ST-13 cells at 10 uM after 11 days by ELISA relative to control. It is filed as functional.
Assay [7] relates to ST-13. In words: Induction of adiponectin protein secretion in mouse ST-13 cells assessed as adiponectin mRNA level after 11 days by semi-quantitative RT-PCR. In kind it is functional, cell-based.
The subject of assay [8] is ST-13. In words: Induction of adipocyte differentiation in mouse ST-13 cells assessed as increase in PPARgamma2 mRNA level after 11 days by semi-quantitative RT-PCR relative to control. It is filed as functional, cell-based.
Assay [9] has as its target T1, Peroxisome proliferator-activated receptor gamma (Homo sapiens) (UniProt P37231).
T1 sequence (whole entry): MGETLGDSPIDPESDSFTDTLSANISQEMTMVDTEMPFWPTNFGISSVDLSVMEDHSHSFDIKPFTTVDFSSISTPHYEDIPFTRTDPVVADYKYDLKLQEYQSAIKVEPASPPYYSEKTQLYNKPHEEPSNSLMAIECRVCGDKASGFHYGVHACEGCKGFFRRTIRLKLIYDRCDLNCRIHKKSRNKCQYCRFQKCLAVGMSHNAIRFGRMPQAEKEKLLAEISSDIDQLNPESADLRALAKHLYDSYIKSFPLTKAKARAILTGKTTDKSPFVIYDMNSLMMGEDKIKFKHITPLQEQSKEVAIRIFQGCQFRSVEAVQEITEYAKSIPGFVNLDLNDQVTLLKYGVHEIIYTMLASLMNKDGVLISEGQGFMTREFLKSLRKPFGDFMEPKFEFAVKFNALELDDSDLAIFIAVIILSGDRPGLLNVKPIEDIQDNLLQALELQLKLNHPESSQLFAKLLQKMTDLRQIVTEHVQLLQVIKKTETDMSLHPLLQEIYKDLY
Nature of the assay: Agonist activity at Gal4-fused human PPARgamma expressed in african green monkey COS1 cells at 30 uM by luciferase reporter gene assay. It is filed as functional, cell-based. The following applies: COS-1.

For assay [10], the system named is ST-13. Nature of the assay: Induction of preadipocyte differentiation in mouse ST-13 cells assessed as lipid accumulation at 5 uM within 11 days by oil red-staining relative to control. It is filed as functional, cell-based.

For `COc1ccc(-c2cc(=O)c3c(OC)cc(OC)c(OC)c3o2)cc1`, the outcome in [1] was Active.

With `COc1ccc(-c2cc(=O)c3c(OC)c(OC)c(OC)c(OC)c3o2)cc1OC` [NOBILETIN], the outcome in assay [2], in assay [4], in assay [5] and in [8] was Active. The Activity entry in [3] is “Dose-dependent effect”; in assay [1] it was “Dose-dependent effect”; in assay [6], 340%; in assay [7] it was “Dose-dependent effect”. Further, the result in assay [9] was inactive.

Turning to `Cc1c(C)c2c(c(C)c1O)CCC(C)(COc1ccc(CC3SC(=O)NC3=O)cc1)O2` (stereo unspecified), the outcome in [10] was Active.
